Each structure is given as a SMILES string.

In general, IC50 refers to the concentration needed to halve the response being measured.

This test has as its target T1, Human recombinant CD38 (Homo sapiens, UniProt P28907).
T1 construct: purchased BPS Bioscience
T1 sequence (P28907 1-300): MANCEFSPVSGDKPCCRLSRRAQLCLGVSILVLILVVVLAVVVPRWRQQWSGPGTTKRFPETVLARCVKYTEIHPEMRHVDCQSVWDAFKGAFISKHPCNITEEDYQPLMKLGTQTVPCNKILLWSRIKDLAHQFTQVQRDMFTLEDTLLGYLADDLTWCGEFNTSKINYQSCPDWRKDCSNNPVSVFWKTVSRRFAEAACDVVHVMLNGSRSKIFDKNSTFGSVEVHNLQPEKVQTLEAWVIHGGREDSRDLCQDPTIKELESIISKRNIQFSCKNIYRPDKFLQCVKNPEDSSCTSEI
In words: CD38 hydrolase inhibition assay. To be noted: glycohydrolase activity, 0.2 ng/μL CD38, 100 μM ε-NAD substrate, fluorescence excitation 300 nm / emission 410 nm. It counts as biochemical. On the procedure:
Example 22: CD38 Hydrolase Inhibition Assay
The CD38 hydrolase inhibition assay measures the glycohydrolase activity of CD38, using an NAD analog as substrate and measuring formation of a fluorescent ADP ribose analog. A 4× buffer was prepared with 1M sucrose and 160 mM Tris-HCl at pH 7.4, for a final assay concentration of 250 mM sucrose and 40 mM Tris-HCl. The 4× solution was kept at 4° C. and warmed to room temperature before use. Tween20 was added to 1× buffer for a final concentration of 0.05%. Human recombinant CD38 (BPS Bioscience) was diluted to 0.4 ng/μL in 1× buffer and 12.5 μL added to each plate well. Inhibitors were added and DMSO content was normalized to the highest concentration on the plate, with an upper limit of 0.5%. Finally, ε-NAD was diluted to 200 μM in 1× buffer and 12.5 μL added to each plate well, for final well concentrations of 0.2 ng/μL CD38 and 100 μM ε-NAD. Plates were covered and incubated at room temperature for […], and then read on a plate reader using excitation 300 nm and emission 410 nm. […] IC50s for test compounds were determined either using GraphPad Prism software v9.3, or CDD Vault.

For `COc1cc(C(=O)Nc2ccnc(C(F)(F)F)c2)cc(-n2ccnc2)c1` [Compound 115, 3-(imidazol-1-yl)-5-methoxy-N-[2-(trifluoromethyl)pyridin-4-yl]benzamide], the IC50 is under 100 nM.

`COCCOc1cc(C(=O)Nc2ccc(F)c(Cl)c2)cc(-n2ccnc2)c1` [Compound 111, N-(3-chloro-4-fluorophenyl)-3-(imidazol-1-yl)-5-(2-methoxyethoxy)benzamide]: the IC50 is under 100 nM.

Take `COCCOc1cc(C(=O)Nc2ccc3cn[nH]c3c2)cc(-n2ccnc2)c1` [Compound 109, 3-(imidazol-1-yl)-N-(1H-indazol-6-yl)-5-(2-methoxyethoxy) benzamide]: the IC50 is under 100 nM.

Consider `COCCOc1cc(C(=O)Nc2ccnc(C(F)(F)F)c2)cc(-c2cccnc2)c1` [Compound 120, 3-(2-methoxyethoxy)-5-(pyridin-3-yl)-N-[2-(trifluoromethyl)pyridin-4-yl]benzamide], for which the IC50 is over 1000 nM.

With `COCCOc1cc(C(=O)Nc2ccc(C(F)(F)F)nc2)cc(-n2ccnc2)c1` [Compound 112, 3-(imidazol-1-yl)-5-(2-methoxyethoxy)-N-[6-(trifluoromethyl)pyridin-3-yl]benzamide], the IC50 is under 100 nM.

As for `COCCOc1cc(C(=O)Nc2ccnc(C(F)(F)F)c2)cc(-c2cncs2)c1` [Compound 116, 3-(2-methoxyethoxy)-5-(1,3-thiazol-5-yl)-N-[2-(trifluoromethyl)pyridin-4-yl]benzamide], the IC50 is under 100 nM.

Take `COCCOc1cc(C(=O)Nc2ccc3[nH]cnc3c2)cc(-n2ccnc2)c1` [Compound 127, N-(1H-benzo[d]imidazol-6-yl)-3-(1H-imidazol-1-yl)-5-(2-methoxyethoxy)benzamide]: the IC50 is under 100 nM.

Take `COCCOc1cc(-n2ccnc2)cc(C(=O)Nc2ccnc(C(F)(F)F)c2)c1F` [Compound 117, 2-fluoro-5-(imidazol-1-yl)-3-(2-methoxyethoxy)-N-[2-(trifluoromethyl)pyridin-4-yl]benzamide]: the half-inhibitory concentration (IC50) lay in the range of 100 to 1000 nM.

In the case of `COCCOc1cc(-n2ccnc2)cc(C(=O)Nc2ccnc(C(F)(F)F)c2)c1Cl` [Compound 113], the IC50 was over 1000 nM.

`COCCOc1cc(C(=O)Nc2cncc(Cl)c2)cc(-n2ccnc2)c1` [Compound 106, N-(5-chloropyridin-3-yl)-3-(imidazol-1-yl)-5-(2-methoxyethoxy) benzamide]: the IC50 was under 100 nM.

Consider `COCCOc1cc(C(=O)Nc2ccnc(C(F)(F)F)c2)cc(-n2cncc2CO)c1` [Compound 118], for which the IC50 lay in the range of 100 to 1000 nM.

Regarding `CN(C)CCOc1cc(C(=O)Nc2ccnc(C(F)(F)F)c2)cc(-n2ccnc2)c1` [Compound 107, 3-[2-(dimethylamino)ethoxy]-5-(imidazol-1-yl)-N-[2-(trifluoromethyl)pyridin-4-yl]benzamide], the IC50 was under 100 nM.

In the case of `COCCOc1cc(C(=O)Nc2ccc3nccnc3c2)cc(-n2ccnc2)c1` [Compound 128, 3-(imidazol-1-yl)-5-(2-methoxyethoxy)-N-(quinoxalin-6-yl) benzamide], the IC50 was under 100 nM.

Take `COCCOc1cc(C(=O)Nc2ccc3[nH]ncc3c2)cc(-n2ccnc2)c1` [Compound 126, 3-(imidazol-1-yl)-N-(1H-indazol-5-yl)-5-(2-methoxyethoxy) benzamide]: the IC50 is under 100 nM.

The values are drawn from patent publication US20260224561A1, “INHIBITORS OF CYCLIC ADP RIBOSE HYDROLASE AND METHODS OF USE THEREOF” (Flagship Pioneering Innovations VI, LLC, priority 2022, published 2026).
